# From US5767291A, “Phenyl heterocycles as cox-2 inhibitors” (Merck Frosst Canada, Inc., priority 1996, dated 1998)
# Target: T1, cyclooxygenase-2 (COX-2) (Homo sapiens, UniProt P35354)
# T1 construct: human osteosarcoma 143 cells (which specifically express cyclooxygenase-2); endogenous in cells; host or cells: human osteosarcoma 143 cells (whole cells, and microsomes prepared from them)
# T1 sequence (P35354 18-604): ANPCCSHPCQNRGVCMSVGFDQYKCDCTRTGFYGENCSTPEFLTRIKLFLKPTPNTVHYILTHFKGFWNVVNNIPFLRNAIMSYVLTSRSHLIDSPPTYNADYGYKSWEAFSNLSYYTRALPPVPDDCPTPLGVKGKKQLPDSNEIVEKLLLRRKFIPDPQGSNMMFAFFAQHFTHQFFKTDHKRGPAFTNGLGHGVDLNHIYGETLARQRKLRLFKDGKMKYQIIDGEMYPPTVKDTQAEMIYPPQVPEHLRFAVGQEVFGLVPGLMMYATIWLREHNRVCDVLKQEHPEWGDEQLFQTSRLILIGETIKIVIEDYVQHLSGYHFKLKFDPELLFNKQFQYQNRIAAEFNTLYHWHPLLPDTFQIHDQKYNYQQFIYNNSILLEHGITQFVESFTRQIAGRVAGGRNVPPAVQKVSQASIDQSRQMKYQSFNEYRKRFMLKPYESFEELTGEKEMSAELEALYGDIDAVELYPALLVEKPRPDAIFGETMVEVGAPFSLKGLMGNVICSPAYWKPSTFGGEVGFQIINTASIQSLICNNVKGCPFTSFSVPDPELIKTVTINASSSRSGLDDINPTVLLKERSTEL
# Assay: Whole cell cyclooxygenase assay, COX-2 (PGE2 synthesis in response to arachidonic acid, radioimmunoassay), human osteosarcoma 143 cells
# Assay type: cell-based
# Details: read-out: Whole Cells COX-2 % inhib.; for inhibition at 0.01 µM: 10 nM; for inhibition at 0.04 µM: 40 nM; for inhibition at 0.16 µM: 160 nM; for inhibition at 0.02 µM: 20 nM; for inhibition at 0.1 µM: 100 nM; for inhibition at 0.08 µM: 80 nM; for inhibition at 0.005 µM: 5 nM
# Description: Compounds were tested as inhibitors of cyclooxygenase activity in whole cell and microsomal cyclooxygenase assays. Both of these assays measured prostaglandin E2 (PGE2) synthesis in response to arachidonic acid, using a radioimmunoassay. Cells used for whole cell assays, and from which microsomes were prepared for microsomal assays, were human osteosarcoma 143 cells (which specifically express cyclooxygenase-2) and human U-937 cells (which specifically express cyclooxygenase-1). In these assays, 100% activity is defined as the difference between prostaglandin E2 synthesis in the absence and presence of arachidonate addition.
SMILES,inhibition at 0.01 µM [%],inhibition at 0.04 µM [%],inhibition at 0.16 µM [%],also measured
"CS(=O)(=O)c1ccc(C2=C(c3cc(F)ccc3F)C(=O)OC2)cc1 [Example 18, 3-(2,5-Difluorophenyl)-4-(4-(methylsulfonyl)phenyl)-2-(5H)-furanone]",–,24,58,–
"CS(=O)(=O)c1ccc(C2=C(c3ccc(F)cc3Br)C(=O)OC2)cc1 [Example 25, 3-(2-Bromo-4-fluorophenyl)-4-(4-(methylsulfonyl)phenyl)-2-(5H)-furanone]",–,–,40,–
"CS(=O)(=O)c1ccc(C2=C(c3ccccc3Cl)C(=O)OC2)cc1 [Example 24, 3-(2-Chlorophenyl)-4-(4-(methylsulfonyl)phenyl)-2-(5H)-furanone]",–,43,78,–
"CS(=O)(=O)c1ccc(C2=C(c3ccc(Cl)cc3Cl)C(=O)OC2)cc1 [Example 31, 3-(2,4-Dichlorophenyl)-4-(4-(methylsulfonyl)phenyl)-2-(5H)-furanone]",–,–,87,inhibition at 0.02 µM: 49%
"CS(=O)(=O)c1ccc(C2=C(c3ccc(Cl)cc3F)C(=O)OC2)cc1 [Example 27, 3-(4-Chloro-2-fluorophenyl)-4-(4-(methylsulfonyl)phenyl)-2-(5H)-furanone]",–,–,97,inhibition at 0.02 µM: 38%
"CS(=O)(=O)c1ccc(-c2cnsc2-c2ccc(F)cc2)cc1 [Example 8, 4-(4-(Methylsulfonyl)phenyl)-5-(4-fluorophenyl)-isothiazole]",41,–,–,inhibition at 0.1 µM: 89%
"CS(=O)(=O)c1ccc(C2=C(c3ccc(Br)cc3)C(=O)OC2)cc1 [Example 20, 3-(4-Bromophenyl)-4-(4-(methylsulfonyl)phenyl)-2-(5H)-furanone]",70,91,–,–
"CS(=O)(=O)c1ccc(C2=C(c3ccc(F)c(Br)c3)C(=O)OC2)cc1 [Example 28, 3-(3-Bromo-4-fluorophenyl)-4-(4-(methylsulfonyl)phenyl)-2-(5H)-furanone]",–,–,69,inhibition at 0.02 µM: 48%
"CS(=O)(=O)c1ccc(C2=C(c3ccc(F)cc3F)C(=O)OC2)cc1 [Example 15, 3-(2,4-Difluorophenyl)-4-(4-(methylsulfonyl)phenyl)-2-(5H)-furanone]",–,–,95,inhibition at 0.02 µM: 39%; inhibition at 0.08 µM: 76%
"COc1ccc(C2=C(c3ccc(S(C)(=O)=O)cc3)COC2=O)cc1 [Example 22, 3-(4-Methoxyphenyl)-4-(4-(methylsulfonyl)phenyl)-2-(5H)-furanone]",–,–,98,inhibition at 0.02 µM: 39%
"CC1(C)OC(=O)C(c2ccc(F)cc2)=C1c1ccc(S(C)(=O)=O)cc1 [Example 12, 5,5-Dimethyl-3-(4-fluorophenyl)-4-(4-methylsulfonylphenyl)-2-(5H)-furanone]",–,–,–,inhibition at 0.1 µM: 54%
"CS(=O)(=O)c1ccc(C2=C(c3c(F)cccc3F)C(=O)OC2)cc1 [Example 17, 3-(2,6-Difluorophenyl)-4-(4-(methylsulfonyl)phenyl)-2-(5H)-furanone]",–,41,77,–
"CS(=O)(=O)c1ccc(C2=C(c3ccc(Cl)cc3)C(=O)OC2)cc1 [Example 21, 3-(4-Chlorophenyl)-4-(4-(methylsulfonyl)phenyl)-2-(5H)-furanone]",50,94,–,–
"CS(=O)(=O)c1ccc(C2=C(c3ccc(Cl)cc3Br)C(=O)OC2)cc1 [Example 26, 3-(2-Bromo-4-Chlorophenyl)-4-(4-(methylsulfonyl)phenyl)-2-(5H)-furanone]",–,–,39,inhibition at 0.08 µM: 27%
"CS(=O)(=O)c1ccc(C2=C(c3cccc(Cl)c3)C(=O)OC2)cc1 [Example 29, 3-(3-Chlorophenyl)-4-(4-(methylsulfonyl)phenyl)-2-(5H)-furanone]",–,–,85,inhibition at 0.02 µM: 78%
"CS(=O)(=O)c1ccc(C2=C(c3ccc(F)cc3Cl)C(=O)OC2)cc1 [Example 30, 3-(2-Chloro-4-fluorophenyl)-4-(4-(methylsulfonyl)phenyl)-2-(5H)-furanone]",–,–,30,–

# Continued, in another order:
inhibition at 0.01 µM [%],inhibition at 0.04 µM [%],inhibition at 0.16 µM [%],SMILES,also measured
16,61,101,"CS(=O)(=O)c1ccc(C2=C(c3ccc(Br)c(Br)c3)C(=O)OC2)cc1 [Example 45, 3-(3,4-Dibromophenyl)-4-(4-(methylsulfonyl)phenyl)-2-(5H)-furanone]",–
7,–,47,"CS(=O)(=O)c1ccc(C2=C(c3ccc(Br)cc3Cl)C(=O)OC2)cc1 [Example 48, 3-(4-Bromo-2-chlorophenyl)-4-(4-(methylsulfonyl)phenyl)-2-(5H)-furanone]",–
11,50,89,"COc1ccc(C2=C(c3ccc(S(C)(=O)=O)cc3)COC2=O)cc1F [Example 36, 3-(3-Fluoro-4-methoxyphenyl)-4-(4-(methylsulfonyl)phenyl)-2-(5H)-furanone]",–
54,96,102,"COc1ccc(C2=C(c3ccc(S(N)(=O)=O)cc3)COC2=O)cc1Cl [Example 53, 3-(3-Chloro-4-methoxyphenyl)-4-(4-(aminosulfonyl)phenyl)-2-(2H)-furanone]",–
50,82,102,"NS(=O)(=O)c1ccc(C2=C(c3ccc(F)c(F)c3)C(=O)OC2)cc1 [Example 52, 3-(3,4-Difluorophenyl)-4-(4-(aminosulfonyl)phenyl)-2-(2H)-furanone]",–
53,82,93,"COc1ccc(C2=C(c3ccc(S(C)(=O)=O)cc3)COC2=O)cc1Cl [Example 37, 3-(3-Chloro-4-methoxyphenyl)-4-(4-(methylsulfonyl)phenyl)-2-(5H)-furanone]",–
–,–,44,"CS(=O)(=O)c1ccc(C2=C(c3c(F)cccc3Cl)C(=O)OC2)cc1 [Example 42, 3-(2-Chloro-6-fluorophenyl)-4-(4-(methylsulfonyl)phenyl)-2-(5H)-furanone]",inhibition at 0.02 µM: 10%
76,94,97,"CS(=O)(=O)c1ccc(C2=C(c3ccc(Cl)c(F)c3)C(=O)OC2)cc1 [Example 46, 3-(4-Chloro-3-fluorophenyl)-4-(4-(methylsulfonyl)phenyl)-2-(5H)-furanone]",–
81,–,99,"COc1ccc(C2=C(c3ccc(S(N)(=O)=O)cc3)COC2=O)cc1Br [Example 54, 3-(3-Bromo-4-methoxyphenyl)-4-(4-(aminosulfonyl)phenyl)-2-(2H)-furanone]",inhibition at 0.08 µM: 91%
–,102,–,"NS(=O)(=O)c1ccc(C2=C(c3ccc(Cl)c(Cl)c3)C(=O)OC2)cc1 [Example 51, 3-(3 4-Dichlorophenyl)-4-(4-(aminosulfonyl)phenyl)-2-(2H)-furanone]",inhibition at 0.005 µM: 49%; inhibition at 0.02 µM: 95%
78,101,–,"Cc1ccc(C2=C(c3ccc(S(C)(=O)=O)cc3)COC2=O)cc1Br [Example 43, 3-(3-Bromo-4-methylphenyl)-4-(4-(methylsulfonyl)phenyl)-2-(5H)-furanone]",–
73,92,–,"CS(=O)(=O)c1ccc(C2=C(c3ccc(Cl)c(Cl)c3)C(=O)OC2)cc1 [Example 32, 3-(3,4-Dichlorophenyl)-4-(4-(methylsulfonyl)phenyl)-2-(5H)-furanone]",inhibition at 0.005 µM: 43%; inhibition at 0.08 µM: 99%
43,72,96,"CSc1ccc(C2=C(c3ccc(S(C)(=O)=O)cc3)COC2=O)cc1 [Example 40, 3-(4-Methylthiophenyl)-4-(4-(methylsulfonyl)phenyl)-2-(5H)-furanone]",–
–,55,106,"CS(=O)(=O)c1ccc(C2=C(c3ccc(Br)cc3F)C(=O)OC2)cc1 [Example 44, 3-(4-Bromo-2-fluorophenyl)-4-(4-(methylsulfonyl)phenyl)-2-(5H)-furanone]",inhibition at 0.02 µM: 14%
25,63,88,"COc1ccc(C2=C(c3ccc(S(C)(=O)=O)cc3)COC2=O)cc1Br [Example 38, 3-(3-Bromo-4-methoxyphenyl)-4-(4-(methylsulfonyl)phenyl)-2-(5H)-furanone]",–
17,–,84,"CS(=O)(=O)c1ccc(C2=C(c3ccccc3F)C(=O)OC2)cc1 [Example 39, 3-(2-Fluorophenyl)-4-(4-(methylsulfonyl)phenyl)-2-(5H)-furanone]",–
